Measurements published in patent publication US20240424115A1, “LONG-ACTING INTERLEUKIN-15 RECEPTOR AGONISTS AND RELATED IMMUNOTHERAPEUTIC COMPOSITIONS AND METHODS” (Nektar Therapeutics, priority 2017, published 2024).

Experiments:
human PBMCs = assay: HuPBMC-pStat5 assay (flow cytometry, lymphocyte subpopulations); format: cell-based
Protocol: The potency of IL-15 or long acting IL-15 R agonists on various human lymphocyte subpopulations was determined by phospho-STAT5 (Y694) dose response assay. Frozen human PBMCs from multiple donors were supplied by AllCells. 1×10^6 cells/100ul were cultured in complete RPMI media for 2 hours and then incubated with the indicated concentrations (10,000ng/ml-0.001ng/ml serial dilutions) of IL-15 or conjugates for 20minutes at 37c. The cells were then fixed (using BD Cytofix) and permeabilized (using 100% pre-chilled methanol) and stained with antibodies for CD3, CD4, CD8, CD4-Tregs (CD4+CD25+Foxp3+), CD56 and phosphorylated STAT5 (Y694) before analysis by flow cytometry. Concentration-response relationships were used to calculate the EC50 values.
Assessment of in-vitro activity of exemplary long-acting IL-15 receptor agonists (e.g., Conjugates 1, 3 and 5) was carried out by investigating signaling in NK cell subsets of human PBMCs as shown in FIGS. 10A (CD56bright cells) and 10B (CD56dim cells). STAT5 phosphorylation was evaluated as previously described for assessing IL-15 signaling activity of the long acting IL-15 receptor agonists.
A second study was conducted to investigate/compare the pStat5 response of human PBMCs obtained from two donors (CD3, CD4, CD8, CD56 (bright and dim) and CD4-Tregs (CD25+Foxp3+)) to IL-15, Conjugate 1 and Conjugate 5. An […] dose response was examined using a 10-fold dilution with a dose range of 0.001-10000 ng/ml and a 20 min stimulation. Each of the test articles was diluted in IL-15 buffer+0.1% BSA.
Assessment of in vitro activity of Conjugate 1 was carried out by investigating NK and CD8 JAK/STAT signaling after treatment of human PBMCs with IL-15 or Conjugate 1 at a dose range of 0.001-10000 ng/ml. STAT5 phosphorylation was assessed as previously described.

[1] = Single dose PK study in non-human primates (plasma concentration); format: in vivo; details: cynomolgus monkeys, single i.v. 100 μg/kg
Protocol: Cynomolgus monkeys (n=2, 1 male and 1 female), were administered a single intravenous dose of Conjugate 1 at 10, 50 and 100 μg/kg. IL-15 was administered as a single intravenous dose at 50 μg/kg as a control. Plasma concentration of drug was determined at the indicated time points post injection (0.03, 0.25, 1, 4, 12, 24, 48, 72, 96, 120, 144, 168 hours).

CD4, CD8, and NK cells = assay: In vivo IL-15 signaling (STAT5 phosphorylation in lymphocytes) in mice
Description: Conventional approaches, such as those involving radiolabeling a compound, administering the compound in vivo, and determining its clearance, can be used to assess whether a compound proposed to be a long-acting, IL-15 R agonist is “long-acting” (i.e., has a clearance that is longer than that of IL-15 administered in the same in vivo system). For the purposes herein, the long acting nature of a long-acting IL-15 R agonist may be, and is typically determined using flow cytometry to measure STAT5 phosphorylation in lymphocytes at various time points after administration of the agonist to be evaluated in mice. As a reference, the signal is lost by around 24 hours with IL-15, but is sustained for a period greater than that for a long-acting IL-15 agonist.
Mice were dosed as described in Example 6 above to assess in-vivo signaling as assessed by degree of STAT5 phosphorylation. Degree of STAT5 phosphorylation in various lymphocytes (CD4, CD8, and NK cells) was assessed by staining whole blood for leukocyte surface markers and pSTAT5, followed by measurement by flow cytometry. Results are shown in FIGS. 8A and 8 B for IL-15 and for Conjugate 2, respectively.
[PK methods previously described herein].
STAT5 phosphorylation in CD4 T cells was determined by using a CD3+CD4+CD8-pSTAT5+ marker combination. FIG. 43 is a plot of pSTAT5 phosphorylation percent positivity within CD4 T cells over time (at 0.25, 1, 6, 24, 48, 72, 96 and 120 hours post administration) at a dose of 0.03 mg/kg (blue, solid squares) or 0.3 mg/kg (orange, solid circles). The vehicle over time (black) and pre-dose (open circles) levels are also shown.

Substance: mono-mPEG-SBA40K-IL-15 [Conjugate 1]
- EC50 (ng/ml)-% pSTAT5 CD3 donor1 (human PBMCs; CD3 cells, donor1, 20 min stimulation): 0.75 ng/ml
- EC50 (ng/ml)-% pSTAT5 CD3 donor2 (human PBMCs; CD3 cells, donor2, 20 min stimulation): 1.1 ng/ml
- EC50 (ng/ml)-% pSTAT5 Treg donor1 (human PBMCs; CD4-Treg cells, donor1): 0.23 ng/ml
- EC50 (ng/ml)-% pSTAT5 Treg donor2 (human PBMCs; CD4-Treg cells, donor2): 0.37 ng/ml
- EC50 (ng/ml)-% pSTAT5 CD4 donor1 (human PBMCs; CD4 cells, donor1): 0.75 ng/ml
- EC50 (ng/ml)-% pSTAT5 CD4 donor2 (human PBMCs; CD4 cells, donor2): 0.83 ng/ml
- maximum pSTAT5 response compared with IL-15 (human PBMCs; CD8 and CD56 bright NK cells): achieves the same maximum response as conventional IL-15
- EC50 (ng/ml)-% pSTAT5 CD8 donor1 (human PBMCs; CD8 cells, donor1): 0.76 ng/ml
- EC50 (ng/ml)-% pSTAT5 CD8 donor2 (human PBMCs; CD8 cells, donor2): 1.54 ng/ml
- EC50 (ng/ml)-% pSTAT5 CD56bright donor1 (human PBMCs; CD56bright cells, donor1): 1.4 ng/ml
- EC50 (ng/ml)-% pSTAT5 CD56bright donor2 (human PBMCs; CD56bright cells, donor2): 1.9 ng/ml
- EC50 (ng/ml)-% pSTAT5 CD56dim donor1 (human PBMCs; CD56dim cells, donor1): 2.9 ng/ml
- EC50 (ng/ml)-% pSTAT5 CD56dim donor2 (human PBMCs; CD56dim cells, donor2): 5.9 ng/ml
- less potent than IL-15 in engaging CD8 cells (human PBMCs; Example 22, % pSTAT5): 5.5 X
- less potent than IL-15 in engaging CD56 bright NK cells (human PBMCs; Example 22, % pSTAT5): 15 X
- IL-15 signaling (STAT5 phosphorylation) in huPBMCs (human PBMCs; NK cell subsets CD56bright, CD56dim): potently induces such signaling
- EC50 (ng/ml) pSTAT5 CD56bright NK (human PBMCs; Table 3, CD56bright NK cells): 2.4 ng/ml
- EC50 (ng/ml)-% pSTAT5 CD3 (human PBMCs; Table 7 Summary Table, CD3): 0.75 ng/ml
- EC50 (ng/ml)-% pSTAT5 CD4 (human PBMCs; Table 7 Summary Table, CD4): 0.75 ng/ml
- EC50 (ng/ml)-% pSTAT5 CD8 (human PBMCs; Table 7 Summary Table, CD8): 0.76 ng/ml
- EC50 (ng/ml)-% pSTAT5 CD56bright (human PBMCs; Table 7 Summary Table, CD56bright): 1.4 ng/ml
- EC50 (ng/ml)-% pSTAT5 CD56dim (human PBMCs; Table 7 Summary Table, CD56dim): 2.9 ng/ml
- EC50 (ng/ml)-% pSTAT5 Treg (human PBMCs; Table 7 Summary Table, Treg): 0.23 ng/ml
- IL-15 more potent than conjugate in inducing CD3, CD4, CD8 and Treg cells (human PBMCs; Table 7 data): 3-4 fold
- IL-15 more potent than conjugate in inducing CD56bright and CD56dim cells (human PBMCs; Table 7 data): approximately 12 fold
- IL-15 more potent than conjugate, CD3 and CD4 induction (human PBMCs; pSTAT5 EC50, CD3 and CD4): 4-6 fold
- IL-15 more potent than conjugate, CD56 induction (human PBMCs; pSTAT5 EC50, CD56): ~10 fold
- IL-15 more potent than conjugate, Treg and CD8 induction (human PBMCs; pSTAT5 EC50, Treg and CD8): 3-5 fold
- EC50 (ng/ml)-MFI CD3 donor1 (human PBMCs; pSTAT5 MFI, CD3 cells, donor1): 22.1 ng/mL
- EC50 (ng/ml)-MFI CD3 donor2 (human PBMCs; pSTAT5 MFI, CD3 cells, donor2): 108.8 ng/mL
- EC50 (ng/ml)-MFI Treg donor1 (human PBMCs; pSTAT5 MFI, CD4-Treg cells, donor1): 2.5 ng/mL
- EC50 (ng/ml)-MFI Treg donor2 (human PBMCs; pSTAT5 MFI, CD4-Treg cells, donor2): 2.9 ng/mL
- EC50 (ng/ml)-MFI CD4 donor1 (human PBMCs; pSTAT5 MFI, CD4 cells, donor1): 23.54 ng/mL
- EC50 (ng/ml)-MFI CD4 donor2 (human PBMCs; pSTAT5 MFI, CD4 cells, donor2): 106.5 ng/mL
- EC50 (ng/ml)-MFI CD8 donor1 (human PBMCs; pSTAT5 MFI, CD8 cells, donor1): 16.73 ng/mL
- EC50 (ng/ml)-MFI CD8 donor2 (human PBMCs; pSTAT5 MFI, CD8 cells, donor2): 99.76 ng/mL
- EC50 (ng/ml)-MFI CD56bright donor1 (human PBMCs; pSTAT5 MFI, CD56bright cells, donor1): 7.8 ng/mL
- EC50 (ng/ml)-MFI CD56bright donor2 (human PBMCs; pSTAT5 MFI, CD56bright cells, donor2): 12.4 ng/mL
- EC50 (ng/ml)-MFI CD56dim donor1 (human PBMCs; pSTAT5 MFI, CD56dim cells, donor1): 23.25 ng/mL
- EC50 (ng/ml)-MFI CD56dim donor2 (human PBMCs; pSTAT5 MFI, CD56dim cells, donor2): 73.05 ng/mL
- half-life [1]: approximately 30 hours
- pSTAT5 expression in CD4 T cells (CD4, CD8, and NK cells; Balb/c mice, single i.v. 0.03 or 0.3 mg/kg, compared to CD8 and NK cells): relatively less increase in pSTAT5 expression
- pSTAT5 percent positivity within NK cells (CD4, CD8, and NK cells; balb/c mice, single injection 0.03 and 0.3 mg/kg): induces robust and sustained pSTAT5 signaling in NK cells
- pSTAT5 percent positivity within CD8 T cells (CD4, CD8, and NK cells; balb/c mice, single injection 0.03 and 0.3 mg/kg, 120 h): induces sustained pSTAT5signaling in CD8 T cells
